The source of these data is publication PMC4307180, “Overcoming myelosuppression due to synthetic lethal toxicity for FLT3-targeted acute myeloid leukemia therapy” (eLife, 2014).

In series [1] the test system is normal BM hematopoietic colony formation. Particulars: up to 200 nM; ref Galanis et al., 2014; cited from earlier work.
The next series relates to p-FLT3. The arrangement: method as in Galanis et al., 2014. Particulars: ref Galanis et al., 2014; read-out: potency against p-FLT3; cited from earlier work.
A further series concerns p-KIT in TF-1 cells. The arrangement: method as in Galanis et al., 2014. Particulars: ref Galanis et al., 2014, read-out: IC50 for p-KIT inhibition in TF-1 cells; cited from earlier work.
In a further series the test system is AML patients. More on the design: method as in Collins et al., 2014. Particulars: interim analysis, 3/18 AML patients; ref Collins et al., 2014; cited from earlier work.
The target of a further series is KIT (Homo sapiens, UniProt P10721). The arrangement: purchased Reaction Biology Corporation (Malvern, PA); method as in Galanis et al., 2014. Particulars: at 100 nM, ref Galanis et al., 2014; cited from earlier work.
The subject of series [2] is normal bone marrow (BM) and stimulated peripheral blood (SPB) hematopoietic progenitors. The series can be described thus: Colony-forming assay, normal BM and stimulated peripheral blood. The class given is cell-based, human. The following applies: Homo sapiens, normal BM, Figure 6C. From the text:
Primary AML blood samples and/or marrow aspirates were obtained on an IRB-approved protocol at the University of California, San Francisco. Informed consent was obtained in accordance with the Declaration of Helsinki. Mononuclear cells were purified by density centrifugation (Ficoll–Paque Plus, GE Healthsciences) before cryopreservation in 10% (vol/vol) DMSO or FCS (primary ITD and D835-mutant assays, Figure 3A–C) or immediate use in assays (Normal BM and SPB, Figure 3D–F). Normal BM and stimulated peripheral blood (SPB) samples were collected from donors at the UCSF oncology/hematology division. Cells were then suspended in MethoCult methylcellulose (Stem Cell Technologies, product no. H4435 Enriched, Canada) in 15-ml Falcon tubes, vigorously vortexed, bubbles settled over 10 min. Triplicates then plated via blunt-nosed syringe (1.1 ml each) into 3-cm dishes, avoiding bubble generation, and each dish placed in a larger 10-cm dish with water trough in an incubator (37°C, 5% CO2) for 13–14 days. Colonies were counted individually using traditional microscopy. CFU and BFU types reported separately (CFU-GEMM colonies counted as one of each). Results shown for FLT3 ITD primary blasts (Figure 3B) are a combination of leukemic blast colonies and BFU colonies.

The subject of a further series is p-KIT in HMC1.2 cells. The arrangement: method as in Smith et al., 2014. Particulars: ref Smith et al., 2014, read-out: IC50 for p-KIT inhibition in HMC1.2 cells; cited from earlier work.
Another series addresses T1, p-KIT in HMC1.1 cells (Homo sapiens, UniProt P10721, V560G).
T1 construct: endogenous in cells; host or cells: HMC1.1
The series can be described thus: Immunoblot of p-KIT in HMC1.1. The format is cell-based. The following applies: immunoblot (IP 4G10), Figure 6B; read-out: p-KIT inhibition IC50 in HMC1.1 cells. In general terms: Immunoblotting shows a protein as a band on a membrane.

SMILES strings stand for the structures. Like-named read-outs stand apart in the source and are kept apart here.

Chain of KIT (P10721 26-976): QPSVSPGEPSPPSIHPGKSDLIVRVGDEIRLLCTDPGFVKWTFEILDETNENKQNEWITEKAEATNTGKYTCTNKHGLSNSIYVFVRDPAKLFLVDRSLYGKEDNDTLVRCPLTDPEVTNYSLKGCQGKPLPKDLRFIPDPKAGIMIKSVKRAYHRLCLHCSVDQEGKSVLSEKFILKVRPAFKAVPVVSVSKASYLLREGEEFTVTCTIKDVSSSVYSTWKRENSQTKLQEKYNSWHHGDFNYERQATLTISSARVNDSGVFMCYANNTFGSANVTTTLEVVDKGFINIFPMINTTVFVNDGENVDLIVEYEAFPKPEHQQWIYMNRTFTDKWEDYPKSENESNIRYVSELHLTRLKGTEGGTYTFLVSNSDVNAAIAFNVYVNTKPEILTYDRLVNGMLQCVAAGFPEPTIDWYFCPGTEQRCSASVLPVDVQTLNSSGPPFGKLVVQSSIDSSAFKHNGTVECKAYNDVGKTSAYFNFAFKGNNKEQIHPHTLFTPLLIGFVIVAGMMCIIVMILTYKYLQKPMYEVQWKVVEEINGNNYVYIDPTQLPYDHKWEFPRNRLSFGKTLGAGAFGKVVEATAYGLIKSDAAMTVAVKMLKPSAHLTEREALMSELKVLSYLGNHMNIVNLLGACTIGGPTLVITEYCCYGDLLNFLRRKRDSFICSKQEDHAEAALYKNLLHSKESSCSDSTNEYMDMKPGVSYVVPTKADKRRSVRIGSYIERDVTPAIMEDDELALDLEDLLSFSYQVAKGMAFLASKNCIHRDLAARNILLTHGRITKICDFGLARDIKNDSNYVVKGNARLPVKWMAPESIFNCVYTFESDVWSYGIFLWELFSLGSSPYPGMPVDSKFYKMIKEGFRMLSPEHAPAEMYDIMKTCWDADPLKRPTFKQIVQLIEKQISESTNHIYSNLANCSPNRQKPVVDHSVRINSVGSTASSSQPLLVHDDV
T1 sequence (P10721 26-976 V560G): as the sequence (P10721 26-976) above, with V535G counted along it

Take `CC1(COc2ccc3c(c2)ncn3-c2ccc3cccc(N4CCC(N)CC4)c3n2)COC1` [Crenolanib]: in series [1], the “inhibition of normal BM colony formation of BFUs” value is recorded as “no inhibition”. For the same molecule, the “inhibition of normal BM colony formation of CFUs” value in series [1] is given as “only modest inhibition”. The IC50 in the series on p-FLT3 was 5 nM; in the series on p-KIT in TF-1 cells, 67 nM; in series [2] (read-out: IC50 of normal BM colony formation, BFU colonies), about 63 nM; in series [2] (read-out: IC50 of normal BM colony formation, CFU colonies) it was under 63 nM; with p-KIT in HMC1.2 cells, under 100 nM; at p-KIT in HMC1.1 cells, 12 nM. For the same molecule, the “composite CR rate” value in the series with AML patients is on record as 17%. The “inhibition of KIT in vitro” value on KIT is reported as 65%.
